{"source": "patent US8476265B2", "about": "“Compounds-801” (AstraZeneca AB, priority 2010, dated 2013)", "key": {"Adrenergic β2": {"target": "T1, Adrenergic β2 (Homo sapiens, UniProt P07550)", "T1 construct": "Adherent H292 cells are removed from tissue culture flasks by treatment with Accutase™ cell detachment solution; endogenous in cells; host or cells: H292 cells", "T1 sequence (P07550 whole entry)": "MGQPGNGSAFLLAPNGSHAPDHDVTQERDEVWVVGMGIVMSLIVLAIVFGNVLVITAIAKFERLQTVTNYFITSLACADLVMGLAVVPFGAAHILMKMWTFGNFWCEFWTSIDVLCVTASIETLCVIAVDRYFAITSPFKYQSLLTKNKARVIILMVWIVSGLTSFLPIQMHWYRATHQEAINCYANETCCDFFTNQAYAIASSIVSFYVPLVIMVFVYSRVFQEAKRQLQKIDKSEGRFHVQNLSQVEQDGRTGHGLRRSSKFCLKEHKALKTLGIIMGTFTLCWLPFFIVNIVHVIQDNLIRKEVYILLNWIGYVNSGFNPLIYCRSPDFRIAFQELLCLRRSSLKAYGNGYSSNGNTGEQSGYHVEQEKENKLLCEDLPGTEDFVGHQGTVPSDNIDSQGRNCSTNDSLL", "test": "Adrenergic β2 mediated cAMP production in H292 cells, single concentration 1 μM", "assay_type": "cell-based", "conditions": "cAMP as percentage of the maximum response generated by 1E-07M formoterol; for percent of formoterol maximum response at 1 µM: NCI-H292, 1 μM compound, read-out: β2 % effect @1 uM; for β2 % effect @1 uM: 1 μM compound", "in_short": "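H292 cells pretreated with rolipram (300 μM final) 10 min, then compound at 1 μM final, 1% DMSO, 60 min at room temperature in HBSS/10 mM HEPES pH 7.4/5 mM glucose. Lysate cAMP quantified by AlphaScreen against a standard curve, as % of maximal response to 1E-07M formoterol.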"}, "[1]": {"target": "T2, human muscarinic acetylcholine M3 receptor (Homo sapiens, UniProt P20309)", "T2 construct": "expressed in transfected cells; host or cells: CHO-K1 (Chinese Hamster Ovary) cell membranes", "T2 sequence (P20309 whole entry)": "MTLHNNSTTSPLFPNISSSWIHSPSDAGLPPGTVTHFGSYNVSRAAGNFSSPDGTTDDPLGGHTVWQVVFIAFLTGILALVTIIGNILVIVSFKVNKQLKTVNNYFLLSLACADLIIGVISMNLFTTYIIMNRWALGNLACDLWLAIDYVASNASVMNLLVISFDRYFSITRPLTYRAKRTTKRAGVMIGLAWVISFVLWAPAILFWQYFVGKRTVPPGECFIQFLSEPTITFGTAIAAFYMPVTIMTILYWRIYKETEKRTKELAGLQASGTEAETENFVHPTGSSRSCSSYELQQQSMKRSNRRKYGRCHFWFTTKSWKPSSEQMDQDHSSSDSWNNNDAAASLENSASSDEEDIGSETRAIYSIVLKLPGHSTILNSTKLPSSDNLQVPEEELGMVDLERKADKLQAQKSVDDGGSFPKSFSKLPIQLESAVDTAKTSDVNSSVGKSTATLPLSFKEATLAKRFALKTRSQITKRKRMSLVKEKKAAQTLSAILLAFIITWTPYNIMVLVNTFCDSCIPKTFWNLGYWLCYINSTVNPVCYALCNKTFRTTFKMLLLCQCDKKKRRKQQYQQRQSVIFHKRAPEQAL", "test": "Muscarinic 3 receptor binding assay ([3H]NMS competition, SPA), single concentration 1 μM", "conditions": "1 μM compound; % inhibition specific [3H]-NMS binding", "in_short": "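CHO-K1 membranes expressing human M3 on SPA beads, competition with 0.1 nM [3H]NMS (quarter Kd) in 20 mM HEPES pH 7.4, 5 mM MgCl2, 0.1% BSA, 1% DMSO; compound at 1 μM. 16 h at room temperature. Value is % inhibition of specific binding, non-specific defined with 1 μM atropine.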"}}}
{"smiles": "O=C1COc2c(CCNCCN(C(=O)CCOCCc3cccc(CN4CCC5(CC4)CN(C(=O)c4n[nH]cc4Cl)CCO5)c3)C3CCCCC3)ccc(O)c2N1", "note": "[Example 133, 3-(3-((4-(4-Chloro-1H-pyrazole-3-carbonyl)-1-oxa-4,9-diazaspiro[5.5]undecan-9-yl)methyl)phenethoxy)-N-cyclohexyl-N-(2-(2-(5-hydroxy-3-oxo-3,4-dihydro-2H-benzo[b][1,4]oxazin-8-yl)ethylamino)ethyl)propanamide]", "values": [{"measurement": "percent of formoterol maximum response at 1 µM", "setting": "Adrenergic β2", "value": 83, "unit": "%"}, {"measurement": "inhibition at 1 µM", "setting": "[1]", "value": 101, "unit": "%"}]}
{"smiles": "O=C1COc2c(CCNCCN(C(=O)CCOCCc3cccc(CN4CCC5(CC4)CN(C(=O)[C@@H](O)Cc4ccccc4)CCO5)c3)C3CCCCC3)ccc(O)c2N1", "note": "[Example 134, (S)-N-Cyclohexyl-N-(2-(2-(5-hydroxy-3-oxo-3,4-dihydro-2H-benzo[b][1,4]oxazin-8-yl)ethylamino)ethyl)-3-(3-((4-(2-hydroxy-3-phenylpropanoyl)-1-oxa-4,9-diazaspiro[5.5]undecan-9-yl)methyl)phenethoxy)propanamide]", "values": [{"measurement": "percent of formoterol maximum response at 1 µM", "setting": "Adrenergic β2", "value": 89, "unit": "%"}, {"measurement": "inhibition at 1 µM", "setting": "[1]", "value": 97, "unit": "%"}]}
{"smiles": "O=C1COc2c(CCNCCN(C(=O)CCOCCc3cccc(CN4CCC5(CC4)CN(C(=O)c4ccc(-n6ccnc6)cc4)CCO5)c3)C3CCCCC3)ccc(O)c2N1", "note": "[Example 135, 3-(3-((4-(4-(1H-Imidazol-1-yl)benzoyl)-1-oxa-4,9-diazaspiro[5.5]undecan-9-yl)methyl)phenethoxy)-N-cyclohexyl-N-(2-(2-(5-hydroxy-3-oxo-3,4-dihydro-2H-benzo[b][1,4]oxazin-8-yl)ethylamino)ethyl)propanamide]", "values": [{"measurement": "percent of formoterol maximum response at 1 µM", "setting": "Adrenergic β2", "value": 86, "unit": "%"}, {"measurement": "inhibition at 1 µM", "setting": "[1]", "value": 66, "unit": "%"}]}
{"smiles": "Cc1ccc2[nH]c(C(=O)N3CCOC4(CCN(Cc5cccc(CCOCCC(=O)N(CCNCCc6ccc(O)c7c6OCC(=O)N7)C6CCCCC6)c5)CC4)C3)cc2c1", "note": "[Example 136, N-Cyclohexyl-N-(2-(2-(5-hydroxy-3-oxo-3,4-dihydro-2H-benzo[b][1,4]oxazin-8-yl)ethylamino)ethyl)-3-(3-((4-(5-methyl-1H-indole-2-carbonyl)-1-oxa-4,9-diazaspiro[5.5]undecan-9-yl)methyl)phenethoxy)propanamide]", "values": [{"measurement": "percent of formoterol maximum response at 1 µM", "setting": "Adrenergic β2", "value": 92, "unit": "%"}, {"measurement": "inhibition at 1 µM", "setting": "[1]", "value": 99, "unit": "%"}]}
{"smiles": "CC(C)C[C@H](O)C(=O)N1CCOC2(CCN(Cc3cccc(CCOCCC(=O)N(CCNCCc4ccc(O)c5c4OCC(=O)N5)C4CCCCC4)c3)CC2)C1", "note": "[Example 137, (S)-N-Cyclohexyl-N-(2-(2-(5-hydroxy-3-oxo-3,4-dihydro-2H-benzo[b][1,4]oxazin-8-yl)ethylamino)ethyl)-3-(3-((4-(2-hydroxy-4-methylpentanoyl)-1-oxa-4,9-diazaspiro[5.5]undecan-9-yl)methyl)phenethoxy)propanamide]", "values": [{"measurement": "percent of formoterol maximum response at 1 µM", "setting": "Adrenergic β2", "value": 88, "unit": "%"}, {"measurement": "inhibition at 1 µM", "setting": "[1]", "value": 100, "unit": "%"}]}
{"smiles": "Cc1ccccc1CC(=O)N1CCOC2(CCN(Cc3cccc(CCOCCC(=O)N(CCNCCc4ccc(O)c5c4OCC(=O)N5)C4CCCCC4)c3)CC2)C1", "note": "[Example 139, N-Cyclohexyl-N-(2-(2-(5-hydroxy-3-oxo-3,4-dihydro-2H-benzo[b][1,4]oxazin-8-yl)ethylamino)ethyl)-3-(3-((4-(2-o-tolylacetyl)-1-oxa-4,9-diazaspiro[5.5]undecan-9-yl)methyl)phenethoxy)propanamide]", "values": [{"measurement": "percent of formoterol maximum response at 1 µM", "setting": "Adrenergic β2", "value": 94, "unit": "%"}, {"measurement": "inhibition at 1 µM", "setting": "[1]", "value": 100, "unit": "%"}]}
{"smiles": "O=C1COc2c(CCNCCN(C(=O)CCOCCc3cccc(CN4CCC5(CC4)CN(C(=O)Cc4c[nH]c6ccccc46)CCO5)c3)C3CCCCC3)ccc(O)c2N1", "note": "[Example 141, 3-(3-((4-(2-(1H-Indol-3-yl)acetyl)-1-oxa-4,9-diazaspiro[5.5]undecan-9-yl)methyl)phenethoxy)-N-cyclohexyl-N-(2-(2-(5-hydroxy-3-oxo-3,4-dihydro-2H-benzo[b][1,4]oxazin-8-yl)ethylamino)ethyl)propanamide]", "values": [{"measurement": "percent of formoterol maximum response at 1 µM", "setting": "Adrenergic β2", "value": 108, "unit": "%"}, {"measurement": "inhibition at 1 µM", "setting": "[1]", "value": 96, "unit": "%"}]}
{"smiles": "Cc1cc(C)n2nc(C(=O)N3CCOC4(CCN(Cc5cccc(CCOCCC(=O)N(CCNCCc6ccc(O)c7c6OCC(=O)N7)C6CCCCC6)c5)CC4)C3)cc2n1", "note": "[Example 142, N-Cyclohexyl-3-(3-((4-(5,7-dimethylpyrazolo[1,5-a]pyrimidine-2-carbonyl)-1-oxa-4,9-diazaspiro[5.5]undecan-9-yl)methyl)phenethoxy)-N-(2-(2-(5-hydroxy-3-oxo-3,4-dihydro-2H-benzo[b][1,4]oxazin-8-yl)ethylamino)ethyl)propanamide]", "values": [{"measurement": "percent of formoterol maximum response at 1 µM", "setting": "Adrenergic β2", "value": 83, "unit": "%"}, {"measurement": "inhibition at 1 µM", "setting": "[1]", "value": 100, "unit": "%"}]}
{"smiles": "O=C1COc2c(CCNCCN(C(=O)CCOCCc3cccc(CN4CCC5(CC4)CN(C(=O)C46CC7CC(F)(CC(F)(C7)C4)C6)CCO5)c3)C3CCCCC3)ccc(O)c2N1", "note": "[Example 143]", "values": [{"measurement": "β2 % effect @1 uM", "setting": "Adrenergic β2", "value": 105, "unit": "%"}, {"measurement": "M3 % inhibition @1 uM", "setting": "[1]", "value": 101, "unit": "%"}]}
{"smiles": "O=C1COc2c(CCNCCN(C(=O)CCOCCc3cccc(CN4CCC5(CC4)CN(C(=O)c4cnc(-c6ccccc6)[nH]4)CCO5)c3)C3CCCCC3)ccc(O)c2N1", "note": "[Example 145, N-Cyclohexyl-N-(2-(2-(5-hydroxy-3-oxo-3,4-dihydro-2H-benzo[b][1,4]oxazin-8-yl)ethylamino)ethyl)-3-(3-((4-(2-phenyl-1H-imidazole-5-carbonyl)-1-oxa-4,9-diazaspiro[5.5]undecan-9-yl)methyl)phenethoxy)propanamide]", "values": [{"measurement": "percent of formoterol maximum response at 1 µM", "setting": "Adrenergic β2", "value": 117, "unit": "%"}, {"measurement": "inhibition at 1 µM", "setting": "[1]", "value": 90, "unit": "%"}]}
{"smiles": "O=C1COc2c(CCNCCN(C(=O)CCOCCc3cccc(CN4CCC5(CC4)CN(C(=O)CC4(O)CCCCCC4)CCO5)c3)C3CCCCC3)ccc(O)c2N1", "note": "[Example 148, N-Cyclohexyl-N-(2-(2-(5-hydroxy-3-oxo-3,4-dihydro-2H-benzo[b][1,4]oxazin-8-yl)ethylamino)ethyl)-3-(3-((4-(2-(l-hydroxycycloheptyl)acetyl)-1-oxa-4,9-diazaspiro[5.5]undecan-9-yl)methyl)phenethoxy)propanamide]", "values": [{"measurement": "β2 % effect @1 uM", "setting": "Adrenergic β2", "value": 108, "unit": "%"}, {"measurement": "M3 % inhibition @1 uM", "setting": "[1]", "value": 95, "unit": "%"}]}
{"smiles": "O=C1COc2c(CCNCCN(C(=O)CCOCCc3cccc(CN4CCC5(CC4)CN(C(=O)CCCOCc4ccccc4)CCO5)c3)C3CCCCC3)ccc(O)c2N1", "note": "[Example 151, 3-(3-((4-(4-(Benzyloxy)butanoyl)-1-oxa-4,9-diazaspiro[5.5]undecan-9-yl)methyl)phenethoxy)-N-cyclohexyl-N-(2-(2-(5-hydroxy-3-oxo-3,4-dihydro-2H-benzo[b][1,4]oxazin-8-yl)ethylamino)ethyl)propanamide]", "values": [{"measurement": "percent of formoterol maximum response at 1 µM", "setting": "Adrenergic β2", "value": 113, "unit": "%"}, {"measurement": "inhibition at 1 µM", "setting": "[1]", "value": 97, "unit": "%"}]}
{"smiles": "O=C1COc2c(CCNCCN(C(=O)CCOCCc3cccc(CN4CCC5(CC4)CN(C(=O)C(O)C(F)(F)F)CCO5)c3)C3CCCCC3)ccc(O)c2N1", "note": "(stereo not shown) [Example 152, N-Cyclohexyl-N-(2-(2-(5-hydroxy-3-oxo-3,4-dihydro-2H-benzo[b][1,4]oxazin-8-yl)ethylamino)ethyl)-3-(3-((4-(3,3,3-trifluoro-2-hydroxypropanoyl)-1-oxa-4,9-diazaspiro[5.5]undecan-9-yl)methyl)phenethoxy)propanamide]", "values": [{"measurement": "percent of formoterol maximum response at 1 µM", "setting": "Adrenergic β2", "value": 112, "unit": "%"}, {"measurement": "inhibition at 1 µM", "setting": "[1]", "value": 100, "unit": "%"}]}
{"smiles": "O=C1COc2c(CCNCCN(C(=O)CCOCCc3cccc(CN4CCC5(CC4)CN(C(=O)c4cccs4)CCO5)c3)C3CCCCC3)ccc(O)c2N1", "note": "[Example 153, N-Cyclohexyl-N-(2-(2-(5-hydroxy-3-oxo-3,4-dihydro-2H-benzo[b][1,4]oxazin-8-yl)ethylamino)ethyl)-3-(3-((4-(thiophene-2-carbonyl)-1-oxa-4,9-diazaspiro[5.5]undecan-9-yl)methyl)phenethoxy)propanamide]", "values": [{"measurement": "percent of formoterol maximum response at 1 µM", "setting": "Adrenergic β2", "value": 98, "unit": "%"}, {"measurement": "inhibition at 1 µM", "setting": "[1]", "value": 101, "unit": "%"}]}
{"smiles": "CC(C)(C)C(=O)N1CCOC2(CCN(Cc3cccc(CCOCCC(=O)N(CCNCCc4ccc(O)c5c4OCC(=O)N5)C4CCCCC4)c3)CC2)C1", "note": "[Example 155, N-Cyclohexyl-N-(2-(2-(5-hydroxy-3-oxo-3,4-dihydro-2H-benzo[b][1,4]oxazin-8-yl)ethylamino)ethyl)-3-(3-((4-pivaloyl-1-oxa-4,9-diazaspiro[5.5]undecan-9-yl)methyl)phenethoxy)propanamide]", "values": [{"measurement": "percent of formoterol maximum response at 1 µM", "setting": "Adrenergic β2", "value": 93, "unit": "%"}, {"measurement": "inhibition at 1 µM", "setting": "[1]", "value": 99, "unit": "%"}]}
{"smiles": "N#Cc1ccc(C(=O)N2CCOC3(CCN(Cc4cccc(CCOCCC(=O)N(CCNCCc5ccc(O)c6c5OCC(=O)N6)C5CCCCC5)c4)CC3)C2)cc1", "note": "[Example 156, 3-(3-((4-(4-Cyanobenzoyl)-1-oxa-4,9-diazaspiro[5.5]undecan-9-yl)methyl)phenethoxy)-N-cyclohexyl-N-(2-(2-(5-hydroxy-3-oxo-3,4-dihydro-2H-benzo[b][1,4]oxazin-8-yl)ethylamino)ethyl)propanamide]", "values": [{"measurement": "percent of formoterol maximum response at 1 µM", "setting": "Adrenergic β2", "value": 86, "unit": "%"}, {"measurement": "inhibition at 1 µM", "setting": "[1]", "value": 93, "unit": "%"}]}
{"smiles": "Cc1ccccc1C(=O)N1CCOC2(CCN(Cc3cccc(CCOCCC(=O)N(CCNCCc4ccc(O)c5c4OCC(=O)N5)C4CCCCC4)c3)CC2)C1", "note": "[Example 158, N-Cyclohexyl-N-(2-(2-(5-hydroxy-3-oxo-3,4-dihydro-2H-benzo[b][1,4]oxazin-8-yl)ethylamino)ethyl)-3-(3-((4-(2-methylbenzoyl)-1-oxa-4,9-diazaspiro[5.5]undecan-9-yl)methyl)phenethoxy)propanamide]", "values": [{"measurement": "percent of formoterol maximum response at 1 µM", "setting": "Adrenergic β2", "value": 94, "unit": "%"}, {"measurement": "inhibition at 1 µM", "setting": "[1]", "value": 98, "unit": "%"}]}
